Entries after “also recorded” stand apart in the source; their conditions may differ.
Key:
Human LPL [1] = target: T1, Human LPL (Homo sapiens, UniProt P06858); assay: Cellular lipolysis assay, Angptl4 protection, CHO pgsA-745/GPIHBP1 cells; type: cell-based; settings: 30 μM, 10 μM, 3 μM, 1 M and 0.3 μM doses, compared to 50 nM LPL with 30 nM Angptl4
T1 construct: purchased R&D Systems; host or cells: LPL added from outside to CHO pgsA-745 cells stably transfected with human GPIHBP1-HA
T1 sequence (P06858 28-475): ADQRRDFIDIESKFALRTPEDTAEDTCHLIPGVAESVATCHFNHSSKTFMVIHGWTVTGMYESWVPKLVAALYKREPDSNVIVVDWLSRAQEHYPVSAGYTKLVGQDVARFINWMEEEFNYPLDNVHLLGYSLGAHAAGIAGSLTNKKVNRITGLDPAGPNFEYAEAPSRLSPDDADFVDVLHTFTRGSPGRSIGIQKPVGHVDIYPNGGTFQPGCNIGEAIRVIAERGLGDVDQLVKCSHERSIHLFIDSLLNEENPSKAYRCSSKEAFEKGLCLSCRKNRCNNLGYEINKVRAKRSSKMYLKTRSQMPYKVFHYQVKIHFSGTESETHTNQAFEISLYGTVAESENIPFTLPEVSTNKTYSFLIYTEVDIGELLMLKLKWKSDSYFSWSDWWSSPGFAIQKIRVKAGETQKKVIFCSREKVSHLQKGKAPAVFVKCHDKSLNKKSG
T1 sequence (Q8IV16 21-151 partner limits assumed): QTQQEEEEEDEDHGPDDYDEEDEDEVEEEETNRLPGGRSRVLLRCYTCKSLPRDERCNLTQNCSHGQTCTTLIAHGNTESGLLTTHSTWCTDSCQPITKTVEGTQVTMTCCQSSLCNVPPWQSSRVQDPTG
Procedure: (§1) Chinese hamster ovary (CHO) mutant pgsA-745 cells were grown in F-12K media (ATCC) with 10% FBS and penicillin/streptomycin. One day prior to transfection 300,000 cells were seeded per well in a 6 well plate and cultured overnight. 2 μg of human GPIHBPI in pcDNA3.1(+)—C-HA (Genscript) were transfected using Lipofectamine 3000 (Invitrogen) and the cells were cultured for 24 hours. Cells were split into selection media (600 μg/ml G418 (Gibco)) and a stable pool was established and verified by qPCR and western blotting using anti-HA (Cell Signaling) and GPIHBP1 (Santa Cruz) antibodies (data not shown).
(§2) CHO pgsA-745 cells overexpressing GPIHBPI were seeded at 200,000 cells per well in 24 well plates and cultured overnight. Media was replaced with serum-free F-12K media containing 0.1 U/ml heparin and cultured for 2 hours to remove surface bound endogenous LPL, then cells were washed with PBS. Human LPL (R&D Systems) was diluted to 50 nM in serum free media and added for 30 minutes gently shaking at room temperature, then cells were washed with PBS to remove unbound LPL. Test compounds were diluted in serum free media and added to cells for 20 minutes at room temperature gently shaking, followed by 10× ANGPTL4 (30 nM final concentration) for another 20 minutes. Test compound and ANGPTL4 were removed and cells washed with PBS. […] Media was removed and fluorescence read at Ex482/Em515.

Human LPL [2] = target: T1, Human LPL; assay: Cellular lipolysis assay, intrinsic activation (Angptl4 omitted), CHO pgsA-745/GPIHBP1 cells; type: cell-based; settings: 30 μM, 10 PM, 3 μM and 1 μM doses, compared to 50 nM LPL alone
Procedure: as §1
as §2, with “Test compounds were diluted in serum free media and added to cells for 20 minutes at room temperature gently shaking, followed by 10× ANGPTL4 (30 nM final concentration) for another 20 minutes.” left out

O=C(O)Cc1cc(F)ccc1NC(=O)c1ccc(N2CCCCC2)c(NC(=O)c2nn(CC(F)(F)F)c3ccccc23)c1 [Compound 158, 2-(5-fluoro-2-(4-(piperidin-1-yl)-3-(1-(2,2,2-trifluoroethyl)-1H-indazole-3-carboxamido)benzamido)phenyl)acetic acid]
lipolysis activity (EnzChek substrate fluorescence), protection of LPL from inactivation by ANGPTL4 (Human LPL [1]): protective action; also recorded: significantly increased lipolysis activity | lipolysis activity (EnzChek substrate fluorescence), intrinsic activation of LPL (Human LPL [2]): intrinsic activation; also recorded: significantly increased lipolysis activity
